What was measured:
mAChR4 = biological target: T1, mAChR4 (Homo sapiens, UniProt P08173); details: target not printed with the value; cited from earlier work
T1 sequence (P08173 1-479): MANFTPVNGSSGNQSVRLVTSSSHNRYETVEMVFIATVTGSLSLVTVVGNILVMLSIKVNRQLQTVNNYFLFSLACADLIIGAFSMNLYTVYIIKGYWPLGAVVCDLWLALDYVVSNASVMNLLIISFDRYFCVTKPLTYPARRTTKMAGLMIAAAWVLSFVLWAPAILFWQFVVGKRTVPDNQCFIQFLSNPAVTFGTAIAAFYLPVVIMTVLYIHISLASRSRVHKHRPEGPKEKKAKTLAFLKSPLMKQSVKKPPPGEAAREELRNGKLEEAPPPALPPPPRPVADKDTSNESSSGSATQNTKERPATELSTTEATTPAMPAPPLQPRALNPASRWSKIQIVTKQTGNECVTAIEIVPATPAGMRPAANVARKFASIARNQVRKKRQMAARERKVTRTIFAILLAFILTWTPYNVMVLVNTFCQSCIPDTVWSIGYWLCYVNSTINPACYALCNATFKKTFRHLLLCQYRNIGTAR

hM4 = biological target: T2, hM4 (Homo sapiens, UniProt P08173); details: read-out: hM4 (PAM) EC50; cited from earlier work
T2 sequence (P08173 1-479): T1 sequence (P08173 1-479)

[1] = test system: small intestinal organoids from WT mice; assay: IL-6 stimulation of small intestinal organoids (Chrm4 mRNA, mAChR4 immunoblot); format: cell-based, mouse; details: IL-6 20 ng/ml in the presence of ethanol for 12 hours
Experimental: (§1) Real-time quantitative PCR. RNA was extracted from mouse tissues and cDNA was generated 511 (Duan et al., 2019). Primer sequences for mouse genes were obtained from the NIH qPrimerDepot. Gene expression was determined with Sybr Green (Bio-Rad Laboratories) using ABI StepOnePlus real-time PCR system. The qPCR value was normalized to Tbp or 18S housekeeping genes. To quantify the total bacterial load in feces, the 515 qPCR value of 16S rRNA gene for each sample was multiplied by the total amount of DNA (μg) mg^−1 of feces. Published bacterial primer sequences were used for 16S rRNA gene (Maeda et al., 2003) (Table 3).
Small intestinal organoid isolation and culture. Small intestinal crypts were isolated from WT mice, cultured and stained as described 41 and treated with ethanol (10 and 50 mM) and IL-6 (20 ng/ml) (Biolegend) for 12 hours.
Immunoblot analyses. To measure expression levels of mAChR4, GCs were isolated as described above. Immunoblot analysis was performed as described 33 using anti-AChR4 1:1000 (#AMR-004; Alomone labs) and anti-β-actin 1:5000 (Sigma-Aldrich) antibody as loading control. […] Immunoblots were analyzed by densitometry, using Image Lab version 6.0.1 software (Bio-Rad).

cultured GCs = assay: IL-6 treatment of cultured goblet cells; format: cell-based
rodent model = details: systemic administration; Walker et al., 2020; cited from earlier work
[2] = Bubser 2014; Pancani 2015; Gould 2018; cited from earlier work
[3] = Bubser 2014; Pancani 2015; Gould 2018; cited from earlier work; remark: listed apart in the source
[4] = test system: WT C57BL/6 mice fed ethanol containing Lieber DeCarli diet; assay: mAChR4 PAM VU0467154 in chronic ethanol feeding (Lieber DeCarli diet) of WT mice; format: in vivo, mouse
Text: Female mice (age, 8 weeks) were placed on Lieber DeCarli diet for 10 weeks as previously described (Llorente et al., 2017). In brief, the Lieber DeCarli diet comprises Micro Stabilized Rod Liq AC IRR 438 (LD101A; TestDiet), Maltodextrin IRR (9598; TestDiet) and 200-proof ethanol (Koptec). The caloric intake from ethanol was 0 on day 1, 10% of total calories on days 2 and 3, 20% on days 4 and 5, 30% from day 6 until the end of 6 weeks, and 36% until the end of the treatment. Control mice received an isocaloric amount of iso-maltose instead of ethanol.
To enhance GAP formation, WT C57BL/6 mice fed Lieber DeCarli diet containing ethanol or isocaloric iso-maltose for 10 weeks were treated for the last 29 days with the specific mAChR4 PAM VU0467154 (5 mg/kg), which was dissolved in the liquid diet. […]
as §1, with “3). […]” for “3).”
Flow cytometry. Isolation: Small intestine was harvested, and the epithelial cell layer was removed. Pieces were digested in media containing 1 mg/mL collagenase (Millipore Sigma), 0.1 U/mL dispase (Worthington Biochem) and 0.1 mg/mL DNase I (Millipore Sigma) at 37° C. at 150 rpm for 30 minutes. A 40% and 80% Percoll gradient was used to collect the lymphoid fractions at the interphase. Flow cytometry: LP-immune cells were pelleted and blocked with anti-mouse CD16/32 antibody (Thermo Fisher) for 15 minutes. Cells were divided to perform 3 different panels to analyze APCs, ILC3 and Tregs.
Stimulation and staining: To stimulate IL-23 secretion by LP-DCs, cells were re-stimulated in vitro with 100 ng/ml flagellin (Invivogen) for 2.5 hours in the presence of 0.7 μl/ml BD GolgiStop™ (BD Bioscience) to accumulate cytokines and/or proteins. The murine APC panel consisted of CD45.2 (V500, clone 104, BD), CD11c (FITC, clone N418, ThermoFisher), MHC Class II (I-A/I-E) (PE, clone M5/114. 15.2, ThermoFisher), CD11b (PerCP544 Cy5.5, clone M1/70, BD), CD103 (APC-R700, clone M290, BD), CX3CR1 (BV421, clone SA011F11, BioLegend), fixable viability stain (FVS) (575V, BD), IL-10 (BV711, clone JES5-16E3, BD) and IL-23 p19 (AF647, clone N71-1183).
Immunoblot analyses. To measure expression levels of mAChR4, GCs were isolated as described above. Immunoblot analysis was performed as described 33 using anti-AChR4 1:1000 (#AMR-004; Alomone labs) and anti-β-actin 1:5000 (Sigma-Aldrich) antibody as loading control. Protein from proximal small intestine was extracted and immunoblot analysis was performed using anti-Reg3g 1:500 (ab198216, Abcam), anti-Reg3b 1:500 (ABIN1870289, Antibodies online), and anti-IL-10 1:1000 (sc-365858; Santa Cruz Biotechnology) antibodies. Stain-free imaging technology using polyacrylamide gels (BioRad) containing a proprietary trihalo compound to make proteins fluorescent, was employed to calculate total protein. Immunoblots were visualized with a charged coupling device camera in a luminescent image analyzer (Gel-Doc; Bio-Rad). Immunoblots were analyzed by densitometry, using Image Lab version 6.0.1 software (Bio-Rad).

[5] = ethanol diet 10 weeks, 5 mg/kg in the diet during the last 29 days
[6] = ethanol fed mice, anaerobic culture
[7] = ethanol fed mice, cells stimulated with flagellin 100 ng/ml 2.5 hours
[8] = ethanol fed mice, proximal small intestine

For `Cc1cc2c(nc1N1CCC(Oc3ccc4c(c3)COC4)CC1)CNC2=O` [MK-4710], the IC50 (mAChR4) is listed as 17 nM.
For `CCOC(=O)N1CCCC(N2CCC(c3cccnc3OC)CC2)CC1` (centres unmarked) [PT-6950], the EC50 (hM4) is listed as 20 nM.
For `Cc1nnc2sc(C(=O)NC3CN(c4cccnc4)C3)c(N)c2c1C` [PT-1148], the EC50 (hM4) is listed as 3 nM.
In the case of “IL-6: cytokine (Biolegend) used at 20 ng/ml on organoids”, the “mAChR4 expression (Chrm4 mRNA, mAChR4 protein)” value [1] is reported as “induced” and the mAChR4 expression (cultured GCs) is reported as “induced”.
In the case of `Cc1cc(C)c2c(N)c(C(=O)NC3CN(c4cccnc4)C3)sc2n1` [PT-3763], the EC50 (hM4) is given as 45 nM.
For `Cc1nnc2sc(C(=O)NCc3ccc(S(=O)(=O)C(F)(F)F)cc3)c(N)c2c1C` [VU0467154], the “ethanol seeking and consumption” value (rodent model) is given as “reduced”, the oral bioavailability [2] is given as “excellent” and the “gastrointestinal motility side effects” value [3] is given as “no gastrointestinal motility side effects”. For the same molecule, the “ethanol-induced liver inflammation (hepatic Cxcl1 mRNA)” value [4, 5] was “protected”, the “ethanol-induced liver injury (plasma ALT, H&E)” value [4, 5] was “protected” and the “ethanol-induced steatosis (ORO-stained liver sections)” value [4, 5] was “protected”. For the same molecule, the “ethanol-induced GAP closure (number of GAPs per villus)” value ([4]; ethanol diet 10 weeks, 5 mg/kg in the diet during the last 29 days, small intestine) was “reduced”, the “ethanol mediated bacterial translocation to MLN (CFU)” value [4, 6] was “prevented” and the “ethanol mediated bacterial translocation to liver (CFU)” value [4, 6] was “prevented”. For the same molecule, the “Frequencies of CD103+ CD11b+ DC populations” value [4, 7] was “increased”, the “Frequencies of LP-APCs (CD11c+, MHCII+)” value [4, 7] was “increased” and the “intestinal IL-10 expression (immunoblot)” value [4, 8] was “induced”. For the same molecule, the “intestinal Reg3b expression (immunoblot)” value [4, 8] was “induced” and the “intestinal Reg3g expression (immunoblot)” value [4, 8] was “induced”.

Source: patent US20250302831A1, “THERAPY FOR ALCOHOL-RELATED LIVER DISEASE” (THE REGENTS OF THE UNIVERSITY OF CALIFORNIA, priority 2021, published 2025)
